Source: patent US4656274A, “Polyfluorinated substituted tricyclic quinoline mono and dioxo antifungal agents and process for their preparation” (Ortho Pharmaceutical Corporation, priority 1985, dated 1987)
Values after ≈ are worked out from the molar mass of the structure shown.

What was measured:
Experiment in all cases: Microbiological minimum inhibitory concentration test (agar dilution)
Type in all cases: cell-based
[1] = tested on: Trichophyton rubrum ATCC 10218; settings: ATCC10218, Mycophil Agar with low pH, 32° C., growth read at 24 and 48 hours and 7 days, read-out: MIC (minimal inhibitory concentration)
Protocol: (§1) The antifungal activity of the polyfluorinated substituted quinoline mono- and dioxo compounds was determined according to the following procedure:
(§2) MICROBIOLOGICAL MINIMUM INHIBITORY CONCENTRATION TEST
Trichophyton rubrum ATCC 10218
(§3) Mycophil Agar with low pH
(§4) A 0.5 mg/ml stock solution of each compound was volumetrically prepared in an appropriate solvent From this stock, 1:2 serial dilutions were prepared in sterile distilled water. Two ml aliquots of the stock and serial dilutions were added to tubes containing 18 ml of mycophil agar (46°-50° C.). Mixtures were poured into square 100×15 mm petri dishes and allowed to solidify.
(§5) All test organisms, except Candida albicans were harvested from six day mycophil agar slants. Candida albicans was diluted from a frozen stock culture. Inocula were diluted with sterile saline to contain approximately 1×10^8 CFUs per ml. Plate counts were performed on 1 ml of all inocula.
(§6) Each plate and appropriate solvent and unadulterated agar growth control was inoculated in duplicate with the inocula prepared above using a Steer's Replicator method.
(§7) Plates were then incubated at 32° C. Observations for growth were made at 24 and 48 hours and 7 days.
(§8) These MIC data are found in Table I.

[2] = tested on: Microsporum gypseum ATCC 14683; settings: Nannizzia gypsea, ATCC14683, Mycophil Agar with low pH, 32° C., growth read at 24 and 48 hours and 7 days, read-out: MIC (minimal inhibitory concentration)
Protocol: as §1, §2
Microsporum gypseum ATCC 14683
as §3, §4, §5, §6, §7, §8

[3] = tested on: Epidermophyton floccosum ATCC 15693; settings: ATCC15693, Mycophil Agar with low pH, 32° C., growth read at 24 and 48 hours and 7 days, read-out: MIC (minimal inhibitory concentration)
Protocol: as §1, §2
Epidermophyton floccosum ATCC 15693
as §3, §4, §5, §6, §7, §8

[4] = tested on: Candida albicans ATCC 10231; settings: ATCC10231, Mycophil Agar with low pH, 32° C., growth read at 24 and 48 hours and 7 days, read-out: MIC (minimal inhibitory concentration)
Protocol: as §1, §2
Candida albicans ATCC 10231
as §3, §4, §5, §6, §7, §8

[5] = tested on: Microsporum canis JJP #143; settings: Mycophil Agar with low pH, 32° C., growth read at 24 and 48 hours and 7 days, read-out: MIC (minimal inhibitory concentration)
Protocol: as §1, §2
Microsporum canis JJP #143
as §3, §4, §5, §6, §7, §8

[6] = tested on: Trichophyton mentagrophytes ATCC 22839; settings: ATCC22839, Mycophil Agar with low pH, 32° C., growth read at 24 and 48 hours and 7 days, read-out: MIC (minimal inhibitory concentration)
Protocol: as §1, §2
Trichophyton mentagrophytes ATCC 22839
as §3, §4, §5, §6, §7, §8

Row | Structure (SMILES) | MIC [1] | MIC [2] | MIC [3] | MIC [4] | MIC [5] | MIC [6]
1 | Cn1c(=O)c2cc3c(F)c(F)c(F)c(F)c3nc2n(C)c1=O [I, 5,6,7,8-Tetrafluoro-1,3-dimethylpyrimidinol[6,5-b]quinolin-2,4-dione] | 1.6 µg/mL (≈ 5.11 µM) | 4.6 µg/mL (≈ 14.7 µM) | 0.39 µg/mL (≈ 1.25 µM) | 50 µg/mL (≈ 160 µM) | 25 µg/mL (≈ 79.8 µM) | 25 µg/mL (≈ 79.8 µM)
2 | CC1(C)CC(=O)c2cc3c(F)c(F)c(F)c(F)c3nc2C1 [II, 5,6,7,8-Tetrafluoro-2,2-dimethylbenzo[2,1-b]quinolin-4-one] | 6.2 µg/mL (≈ 20.9 µM) | 9.4 µg/mL (≈ 31.6 µM) | 1.5 µg/mL (≈ 5.05 µM) | 50 µg/mL (≈ 168 µM) | 25 µg/mL (≈ 84.1 µM) | 6.2 µg/mL (≈ 20.9 µM)
